This note sets out measurements from ChEMBL document CHEMBL1909046, “DrugMatrix in vitro pharmacology data”.

Experiment [1] addresses Tyrosine-protein kinase Fyn (Homo sapiens, UniProt P06241). Kind of experiment: biochemical. In kind it is cell-based, Insect cells.
In the next experiment the target is Cannabinoid receptor 1 (Homo sapiens, UniProt P21554). In kind it is cell membranes, Membrane. Particulars: chem-1. Also: in other assays of this panel Not Active means under 50% inhibition at 10 µM.
Experiment [2] deals with T1, 5-hydroxytryptamine receptor 2C (Homo sapiens, UniProt P28335).
T1 sequence (P28335 whole entry): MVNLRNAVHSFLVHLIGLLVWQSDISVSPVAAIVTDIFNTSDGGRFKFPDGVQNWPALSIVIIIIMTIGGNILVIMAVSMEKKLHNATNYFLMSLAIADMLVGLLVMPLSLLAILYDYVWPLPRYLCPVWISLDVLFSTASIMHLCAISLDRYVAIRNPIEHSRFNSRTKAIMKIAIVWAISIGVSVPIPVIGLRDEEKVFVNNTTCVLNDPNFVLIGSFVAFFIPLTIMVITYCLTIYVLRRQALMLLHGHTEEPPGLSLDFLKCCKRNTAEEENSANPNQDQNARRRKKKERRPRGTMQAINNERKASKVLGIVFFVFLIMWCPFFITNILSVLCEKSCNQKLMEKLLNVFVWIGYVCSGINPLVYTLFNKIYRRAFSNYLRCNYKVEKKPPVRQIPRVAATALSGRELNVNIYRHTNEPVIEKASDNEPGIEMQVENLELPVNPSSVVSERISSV
Kind of experiment: DRUGMATRIX: Serotonin (5-Hydroxytryptamine) 5-HT2C radioligand binding (ligand: [3H] Mesulergine). In kind it is cell membranes, CHO-K1, Membrane. As to conditions: Not Active = under 50% inhibition at 10 µM; for Ki: read-out: Ki.

For experiment [3], the target named is T2, C-C chemokine receptor type 4 (Homo sapiens, UniProt P51679). Also: in other assays of this panel Not Active means under 50% inhibition at 10 µM.
T2 sequence (P51679 whole entry): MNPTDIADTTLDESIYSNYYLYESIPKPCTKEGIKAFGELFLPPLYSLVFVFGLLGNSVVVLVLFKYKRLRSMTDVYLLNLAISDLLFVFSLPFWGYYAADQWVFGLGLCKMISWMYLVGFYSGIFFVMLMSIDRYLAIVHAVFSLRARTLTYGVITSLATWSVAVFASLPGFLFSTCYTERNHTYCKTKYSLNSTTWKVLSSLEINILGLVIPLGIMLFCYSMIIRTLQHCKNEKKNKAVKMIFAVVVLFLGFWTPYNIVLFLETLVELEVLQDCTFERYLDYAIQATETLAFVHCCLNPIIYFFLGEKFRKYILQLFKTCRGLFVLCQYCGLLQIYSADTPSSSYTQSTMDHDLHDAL
In kind it is cell membranes, Chem-1, Membrane. Particulars: chem-1.

The nature of experiment [4]: DRUGMATRIX: GABAA, Flunitrazepam, Central radioligand binding (ligand: [3H] Flunitrazepam). The class given is cell membranes, Rattus norvegicus, Wistar, Brain, Membrane. As to conditions: Not Active = under 50% inhibition at 10 µM.
Experiment [5] concerns the target T3, Muscarinic acetylcholine receptor M5 (Homo sapiens, UniProt P08912). Also: in other assays of this panel Not Active means under 50% inhibition at 10 µM.
T3 sequence (P08912 whole entry): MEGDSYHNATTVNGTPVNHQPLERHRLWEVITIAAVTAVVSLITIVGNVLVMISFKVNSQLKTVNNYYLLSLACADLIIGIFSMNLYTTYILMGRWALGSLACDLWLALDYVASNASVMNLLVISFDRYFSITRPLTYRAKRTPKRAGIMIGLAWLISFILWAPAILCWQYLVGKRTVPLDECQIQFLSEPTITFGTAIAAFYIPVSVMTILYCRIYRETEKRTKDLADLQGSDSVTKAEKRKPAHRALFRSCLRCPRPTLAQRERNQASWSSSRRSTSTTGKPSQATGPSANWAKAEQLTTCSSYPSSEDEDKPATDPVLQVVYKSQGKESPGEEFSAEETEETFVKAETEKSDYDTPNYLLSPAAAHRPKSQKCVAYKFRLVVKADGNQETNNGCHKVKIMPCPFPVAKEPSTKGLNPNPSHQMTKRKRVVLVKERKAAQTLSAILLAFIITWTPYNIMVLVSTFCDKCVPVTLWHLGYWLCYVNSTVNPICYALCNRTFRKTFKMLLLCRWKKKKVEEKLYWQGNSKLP
In kind it is cell membranes, CHO-K1, Membrane. Particulars: for Ki: read-out: Ki.

Tyrosine-protein kinase Fyn, sequence (P06241 whole entry): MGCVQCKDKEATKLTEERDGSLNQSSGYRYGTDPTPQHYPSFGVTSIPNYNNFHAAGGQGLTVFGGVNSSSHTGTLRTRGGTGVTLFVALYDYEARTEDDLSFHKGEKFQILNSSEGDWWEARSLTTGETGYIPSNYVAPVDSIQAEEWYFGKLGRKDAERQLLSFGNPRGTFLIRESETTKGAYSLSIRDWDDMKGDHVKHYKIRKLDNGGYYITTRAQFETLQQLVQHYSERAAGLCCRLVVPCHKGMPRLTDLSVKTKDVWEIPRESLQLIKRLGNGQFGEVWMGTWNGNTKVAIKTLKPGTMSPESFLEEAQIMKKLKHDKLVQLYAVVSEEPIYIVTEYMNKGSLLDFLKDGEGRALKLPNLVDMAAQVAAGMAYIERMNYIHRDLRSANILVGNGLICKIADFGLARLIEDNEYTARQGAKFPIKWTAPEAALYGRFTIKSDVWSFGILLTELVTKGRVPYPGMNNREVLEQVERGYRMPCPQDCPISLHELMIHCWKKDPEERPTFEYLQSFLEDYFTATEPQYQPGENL
Cannabinoid receptor 1, sequence (P21554 whole entry): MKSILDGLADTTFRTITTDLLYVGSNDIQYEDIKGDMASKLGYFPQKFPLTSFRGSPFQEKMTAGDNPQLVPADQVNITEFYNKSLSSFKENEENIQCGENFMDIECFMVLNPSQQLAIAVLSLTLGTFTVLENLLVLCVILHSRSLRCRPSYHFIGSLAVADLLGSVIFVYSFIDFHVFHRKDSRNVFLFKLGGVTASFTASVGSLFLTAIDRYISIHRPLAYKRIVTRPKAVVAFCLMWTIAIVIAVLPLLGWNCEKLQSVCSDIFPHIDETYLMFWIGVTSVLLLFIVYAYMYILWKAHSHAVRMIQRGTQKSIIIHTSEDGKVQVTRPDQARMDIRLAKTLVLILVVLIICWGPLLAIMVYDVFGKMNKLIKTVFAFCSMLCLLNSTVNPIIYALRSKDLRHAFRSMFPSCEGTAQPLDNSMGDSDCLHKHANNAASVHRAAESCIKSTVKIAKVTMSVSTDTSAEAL

In general, IC50 refers to the concentration that gives 50% inhibition. One may read the Ki as the equilibrium dissociation constant of an inhibitor or competing ligand from its target. Take `CCOc1ccc(NC(C)=O)cc1` [PHENACETIN]: the IC50 result (in experiment [1] (insect cells); at Cannabinoid receptor 1; in experiment [2] (cho-k1); in experiment [3]; in experiment [4]; in experiment [5] (cho-k1)) was “Not Active” each time. The Ki entry in experiment [4] is “Not Active”.

`C[C@]12CC[C@@H]3c4ccc(O)cc4CC[C@H]3[C@@H]1CCC2=O` [ESTRONE]: the IC50 result (in experiment [1] (insect cells); at Cannabinoid receptor 1; in experiment [2] (cho-k1); in experiment [3]; in experiment [4]; in experiment [5] (cho-k1)) was “Not Active” in each case. The Ki result in experiment [4] is “Not Active”.

In the case of `NC1=NC(=O)C(c2ccccc2)O1` (stereo unspecified) [PEMOLINE], the IC50 entry (in experiment [1] (insect cells); at Cannabinoid receptor 1; in experiment [2] (cho-k1); in experiment [3]; in experiment [4]; in experiment [5] (cho-k1)) was “Not Active” in each case. In addition, the Ki entry in experiment [4] is recorded as “Not Active”.

On to `CN(C)c1nc(N(C)C)nc(N(C)C)n1` [ALTRETAMINE], for which the IC50 result (in experiment [1] (insect cells); against Cannabinoid receptor 1; in experiment [2] (cho-k1); in experiment [3]; in experiment [4]; in experiment [5] (cho-k1)) was “Not Active” each time. For the same compound, the Ki result in experiment [4] is given as “Not Active”.

As for `CCn1cc(C(=O)O)c(=O)c2cc(F)c(N3CCNCC3)cc21` [NORFLOXACIN], the half-maximal inhibitory concentration (IC50) entry (in experiment [1] (insect cells); against Cannabinoid receptor 1; in experiment [2] (cho-k1); in experiment [3]; in experiment [4]; in experiment [5] (cho-k1)) was “Not Active” in each case. Further, in experiment [4], the Ki result was “Not Active”.

`Clc1cccc(Cl)c1NC1=NCCN1` [CLONIDINE]: the 50% inhibitory concentration (IC50) result (in experiment [1] (insect cells); against Cannabinoid receptor 1; in experiment [2] (cho-k1); in experiment [3]; in experiment [4]; in experiment [5] (cho-k1)) was “Not Active” each time. Moreover, in experiment [4], the Ki result is “Not Active”.

For `C=C(C)C1(O)OC(=O)C=C1OC` (stereo unspecified) [PENICILLIC ACID], the IC50 result (in experiment [1] (insect cells); at Cannabinoid receptor 1; in experiment [2] (cho-k1); in experiment [3]; in experiment [4]; in experiment [5] (cho-k1)) was “Not Active” each time. For the same compound, in experiment [4], the Ki result was “Not Active”.

As to `C[C@H](CS)C(=O)N1CCC[C@H]1C(=O)O` [CAPTOPRIL], the IC50 result (in experiment [1] (insect cells); against Cannabinoid receptor 1; in experiment [2] (cho-k1); in experiment [3]; in experiment [4]; in experiment [5] (cho-k1)) was “Not Active” throughout. In addition, the Ki entry in experiment [4] is “Not Active”.

As to `C[C@H]1O[C@@H](O[C@H]2[C@@H](O)C[C@H](O[C@H]3[C@@H](O)C[C@H](O[C@H]4CC[C@@]5(C)[C@H](CC[C@@H]6[C@@H]5C[C@@H](O)[C@]5(C)[C@@H](C7=CC(=O)OC7)CC[C@]65O)C4)O[C@@H]3C)O[C@@H]2C)C[C@H](O)[C@@H]1O` [DIGOXIN], the half-maximal inhibitory concentration (IC50) result (in experiment [1] (insect cells); on Cannabinoid receptor 1; in experiment [2] (cho-k1); in experiment [3]; in experiment [4]; in experiment [5] (cho-k1)) was “Not Active” each time. In addition, the Ki entry in experiment [4] was “Not Active”.

For the compound `CN(C)C(=O)Oc1cc(OC(=O)N(C)C)cc(C(O)CNC(C)(C)C)c1` (stereo unspecified) [BAMBUTEROL], the IC50 result (in experiment [1] (insect cells); on Cannabinoid receptor 1; in experiment [2] (cho-k1); in experiment [3]; in experiment [4]; in experiment [5] (cho-k1)) was “Not Active” throughout. Moreover, in experiment [4], the Ki result is reported as “Not Active”.

With `CC(C)[C@H]1C(=O)N2CCC[C@H]2[C@]2(O)O[C@](NC(=O)[C@@H]3C=C4c5cccc6[nH]cc(c56)C[C@H]4N(C)C3)(C(C)C)C(=O)N12` [ERGOCORNINE], the IC50 result was “Not Active” in experiment [1] (insect cells); “Not Active” at Cannabinoid receptor 1; 0.104 µM in experiment [2] (read-out: IC50); “Not Active” in experiment [3]; “Not Active” in experiment [4]; “Not Active” in experiment [5] (cho-k1). Moreover, the inhibitory constant (Ki) in experiment [2] is 0.055 µM; in experiment [4], “Not Active”.

With `CN(C)CCCN1c2ccccc2Sc2ccccc21` [PROMAZINE], the IC50 result in experiment [1] (insect cells) is “Not Active”; against Cannabinoid receptor 1, “Not Active”; in experiment [2] (read-out: IC50), 0.099 µM; in experiment [3] it was “Not Active”; in experiment [4], “Not Active”; in experiment [5] (read-out: IC50), 0.064 µM. The Ki was 0.052 µM in experiment [2], “Not Active” in experiment [4] and 0.046 µM in experiment [5].

In the case of `C[C@](N)(Cc1ccc(O)c(O)c1)C(=O)O` [METHYLDOPA], the IC50 was 5.18 µM in experiment [1] (read-out: IC50); “Not Active” against Cannabinoid receptor 1; “Not Active” in experiment [2] (cho-k1); “Not Active” in experiment [3]; “Not Active” in experiment [4]; “Not Active” in experiment [5] (cho-k1). In experiment [4], the Ki result is given as “Not Active”.

Consider `CCOC(=O)C1=C(COCCN)NC(C)=C(C(=O)OC)C1c1ccccc1Cl` (stereo unspecified) [AMLODIPINE], for which the concentration for half-maximal inhibition (IC50) entry (in experiment [1] (insect cells); on Cannabinoid receptor 1; in experiment [2] (cho-k1); in experiment [3]; in experiment [4]; in experiment [5] (cho-k1)) was “Not Active” throughout. Besides, in experiment [4], the inhibitory constant (Ki) result is given as “Not Active”.

For the compound `CC(O)CO` (stereo unspecified) [PROPYLENE GLYCOL], the IC50 entry (in experiment [1] (insect cells); on Cannabinoid receptor 1; in experiment [2] (cho-k1); in experiment [3]; in experiment [4]; in experiment [5] (cho-k1)) was “Not Active” each time. In addition, the Ki result in experiment [4] is “Not Active”.

As for `CCCC1O[C@@H]2C[C@H]3[C@@H]4CCC5=CC(=O)C=C[C@]5(C)[C@H]4[C@@H](O)C[C@]3(C)[C@]2(C(=O)CO)O1` (stereo partly specified) [BUDESONIDE], the IC50 entry (in experiment [1] (insect cells); at Cannabinoid receptor 1; in experiment [2] (cho-k1); in experiment [3]; in experiment [4]; in experiment [5] (cho-k1)) was “Not Active” each time. In addition, the Ki entry in experiment [4] is on record as “Not Active”.

Take `CC1Cc2ccccc2N1NC(=O)c1ccc(Cl)c(S(N)(=O)=O)c1` (stereo unspecified) [INDAPAMIDE]: the IC50 entry (in experiment [1] (insect cells); at Cannabinoid receptor 1; in experiment [2] (cho-k1); in experiment [3]; in experiment [4]; in experiment [5] (cho-k1)) was “Not Active” each time. Further, in experiment [4], the Ki result is “Not Active”.

Consider `CCC1(c2ccc(N)cc2)CCC(=O)NC1=O` (stereo unspecified) [AMINOGLUTETHIMIDE], for which the IC50 entry (in experiment [1] (insect cells); at Cannabinoid receptor 1; in experiment [2] (cho-k1); in experiment [3]; in experiment [4]; in experiment [5] (cho-k1)) was “Not Active” throughout. In addition, in experiment [4], the Ki result was “Not Active”.

On to `CNCCCN1c2ccccc2CCc2ccccc21` [DESIPRAMINE], for which the IC50 entry (in experiment [1] (insect cells); on Cannabinoid receptor 1; in experiment [2] (cho-k1); in experiment [3]; in experiment [4]; in experiment [5] (cho-k1)) was “Not Active” throughout. Further, in experiment [4], the Ki result is reported as “Not Active”.

For `Cc1ccccc1N1C(=O)c2cc(S(N)(=O)=O)c(Cl)cc2NC1C` (stereo unspecified) [METOLAZONE], the IC50 result (in experiment [1] (insect cells); at Cannabinoid receptor 1; in experiment [2] (cho-k1); in experiment [3]; in experiment [4]; in experiment [5] (cho-k1)) was “Not Active” throughout. For the same compound, the Ki entry in experiment [4] is on record as “Not Active”.

For the compound `C1CCC(C(CC2CCCCN2)C2CCCCC2)CC1` (stereo unspecified) [PERHEXILINE], the IC50 is 4.06 µM in experiment [1] (read-out: IC50); “Not Active” on Cannabinoid receptor 1; “Not Active” in experiment [2] (cho-k1); “Not Active” in experiment [3]; “Not Active” in experiment [4]; 1.09 µM in experiment [5] (read-out: IC50). The Ki result is “Not Active” in experiment [4] and 0.785 µM in experiment [5].
